This note sets out measurements from ChEMBL document CHEMBL1157901, “Discovery of a tetrahydropyrimidin-2(1H)-one derivative (TAK-442) as a potent, selective, and orally active factor Xa inhibitor” (J Med Chem, 2010).

What is called logD is lipophilicity at a set pH, counting ionised and neutral species.

SMILES strings stand for the structures.

One series in a line: Metabolic stability in human liver microsomes assessed as compound remaining after 120 mins by HPLC. To be noted: read-out: Activity. The class given is ADME, Microsome. Background: Microsomes from liver hold many membrane-bound enzymes, among them those of drug oxidation.
In the case of `Cc1ncc2n1C(=O)N(C1CCN(C(=O)CCS(=O)(=O)c3ccc4cc(Cl)ccc4c3)CC1)C2`, the remaining at 2 h was 70.5%.

The nature of a further series: Metabolic stability in monkey liver microsomes assessed as compound remaining after 120 mins by HPLC. The series is classed as ADME, Macaca mulatta, Microsome. To be noted: rhesus monkey, read-out: Activity.
As for `Cc1ncc2n1C(=O)N(C1CCN(C(=O)CCS(=O)(=O)c3ccc4cc(Cl)ccc4c3)CC1)C2`, the remaining at 2 h worked out at 99.9%.

A short description of a further series: Octanol-water partition coefficient, log D at pH 7.4. The class given is physicochemical.
Details: not given
In turn, `Cc1ncc2n1C(=O)N(C1CCN(C(=O)[C@H](O)CS(=O)(=O)c3ccc4cc(Cl)ccc4c3)CC1)C2` gave a logD of 2.13.
On the same count and under the same terms, the value for `O=C([C@H](O)CS(=O)(=O)c1ccc2cc(Cl)ccc2c1)N1CCC(N2C[C@H]3CCCN3C2=O)CC1` was 2.16; that for `O=C([C@H](O)CS(=O)(=O)c1ccc2cc(Cl)ccc2c1)N1CCC(N2CCCS2(=O)=O)CC1` was 1.69; that for `O=C([C@H](O)CS(=O)(=O)c1ccc2cc(Cl)ccc2c1)N1CCC(n2cc[nH]c2=O)CC1` was 1.79.
The same measure, in the same setting: the value for `O=C([C@H](O)CS(=O)(=O)c1ccc2cc(Cl)ccc2c1)N1CCC(N2Cc3ccccc3C2=O)CC1` was 2.58.
Same read-out and setting: for `O=C([C@H](O)CS(=O)(=O)c1ccc2cc(Cl)ccc2c1)N1CCC(N2CCOCC2=O)CC1` the value was 1.85.
`O=C([C@H](O)CS(=O)(=O)c1ccc2cc(Cl)ccc2c1)N1CCC(N2NCCCC2=O)CC1` yielded a logD of 1.85.
Take `O=C([C@H](O)CS(=O)(=O)c1ccc2cc(Cl)ccc2c1)N1CCC(N2CCCNC2=O)CC1` [LETAXABAN]: the logD amounted to 1.81.
The molecule `O=C([C@H](O)CS(=O)(=O)c1ccc2cc(Cl)ccc2c1)N1CCC(N2CCCCC2=O)CC1` returned a logD of 2.19.
Consider `O=C([C@H](O)CS(=O)(=O)c1ccc2cc(Cl)ccc2c1)N1CCC(N2CCNC2=O)CC1`, for which the logD came to 1.73.
Still for that read-out and setting: the value for `O=C([C@H](O)CS(=O)(=O)c1ccc2cc(Cl)ccc2c1)N1CCC(N2Cc3cccn3C2=O)CC1` was 2.6; that for `O=C([C@H](O)CS(=O)(=O)c1ccc2cc(Cl)ccc2c1)N1CCC(N2C[C@@H]3CCCN3C2=O)CC1` was 2.16; that for `O=C([C@H](O)CS(=O)(=O)c1ccc2cc(Cl)ccc2c1)N1CCC(N2CCCOC2=O)CC1` was 1.67.
`O=C([C@H](O)CS(=O)(=O)c1ccc2cc(Cl)ccc2c1)N1CCC(N2CCCC2)CC1` registered a logD of 1.56.
`O=C([C@H](O)CS(=O)(=O)c1ccc2cc(Cl)ccc2c1)N1CCC(N2CCCCCC2=O)CC1` registered a logD of 2.52.
On the same count and under the same terms, the value for `O=C([C@H](O)CS(=O)(=O)c1ccc2cc(Cl)ccc2c1)N1CCC(N2CCOC2=O)CC1` was 1.75; that for `O=C([C@H](O)CS(=O)(=O)c1ccc2cc(Cl)ccc2c1)N1CCC(N2CCCC2=O)CC1` was 1.96.
